# Results published in patent US5011825A, “Peptides influencing diuresis and natriuresis, a process for their preparation, agents containing them, and their use” (Hoechst Aktiengesellschaft, priority 1986, dated 1991).
# Where a SMILES comes first, the peptide text is derived from it. [ ]: non-standard residue; d: D form. The star is where a group is joined. d(aIle) = CC[C@H](C)[C@@H](N)C(=O)O; Leu(ol) = CC(C)C[C@H](N)CO; code Z = not defined here; Cbz = O=C(OCc1ccccc1)*; OBn = c1ccc(CO*)cc1; OtBu = CC(C)(C)O*; tBu = CC(C)(C)*
# Experiments:
# rat [1] = assay: Diuretic, natriuretic and kaliuretic action, Experimental Design 2 (anesthetized rats, stepwise halved NaCl infusion, i.v. bolus); assay type: in vivo; conditions: dose 1 mg/kg rat i.v. bolus, collection period 120 min; for Urine: control 0.520; for K^+: control 25.8; for Na^+: control 31.5
# Method: B. Diuretic, natruiuretic and kaliuretic action of the peptides according to the invention in Experimental Design 2 (dose: 1 mg/kg rat, colection period: 120 min.)
# Experimental Design 2: The rats were anesthetized with 0.1 ml of 10% strength thiobutabarbital sodium/100 g of body weight i.p. They received an NaCl infusion from 60 min before administration of the substance up to administration of the substance (2.5 ml of a 0.85% strength NaCl solution .h^-1.0.1 kg^-1 body weight). After ad
# ministration of the substance, the infusion rate was halved for one hour (1.25 ml.h^-1.0.1 kg^-1) Thereafter the infusion rate was again halved up to the end of the experiment (0.625 ml.h^1.0.1 kg^-1). The test substance was administered as i.v. bolus in 0.1 ml of a 0.85% strength NaCl solution/100 g of body weight.
# rat [2] = assay: Diuretic, natriuretic and kaliuretic action, Experimental Design 1 (anesthetized rats, continuous NaCl infusion, i.v. bolus); assay type: in vivo; conditions: for Urine / K^+ / Na^+: collection period 90 min; for Urine: control 1.267; for K^+: control 29.5; for Na^+: control 65.2; for Type of action on diuresis, natriuresis and kaliuresis (in words): judged from the data against control
# Method: A. […]
# Experimental Design 1: The rats were anesthetized with 0.1 ml of 10% strength thiobutabarbital sodium/100 g of body weight i.p. They received an NaCl infusion from 60 min before administration of the substance and continuing during the experiment (2.5 ml of a 0.9% strength NaCl solution .h^-1.0.1 kg^-1 body weight). The test substance was administered as an i.v. bolus in 0.5 ml of a 0.9% strength solution/100 g of body weight.
Compound,Urine (rat [1]),K^+ (rat [1]),Na^+ (rat [1]),other results
CC[C@H](C)[C@H](NC(=O)[C@@H](CCCNC(=N)N)NC(=O)[C@H](CC(C)C)NC(=O)[C@@H](NC(=O)[C@H](N)CCCNC(=N)N)[C@@H](C)CC)C(=O)O [H-D-Arg-Ile-Leu-D-Arg-Ile-OH] (H-[dR]IL[dR]I-OH),0.28 mL/kg,33.9 µmol/kg,61.4 µmol/kg,
"H-RLQRL-OH [H-Arg-Leu-Gln-Arg-Leu-OH, H-Arg-Leu-Gln-Arg-Leu--OH]",0.25 mL/kg,23.7 µmol/kg,30.2 µmol/kg,
CC[C@H](C)[C@H](NC(=O)[C@H](CCCNC(=N)N)NC(=O)[C@H](CC(C)C)NC(=O)[C@@H](NC(=O)[C@H](N)CCCNC(=N)N)[C@@H](C)CC)C(=O)O [H-D-Arg-Ile-Leu-Arg-Ile-OH] (H-[dR]ILRI-OH),0.22 mL/kg,33.6 µmol/kg,55.3 µmol/kg,
H-RIFRI-OH [H-Arg-Ile-Phe-Arg-Ile-OH],,,,Urine (rat [2]; dose 1 mg/kg rat i.v. bolus): 2.00 mL/kg; K^+ (rat [2]; dose 1 mg/kg rat i.v. bolus): 68.3 µmol/kg; Na^+ (rat [2]; dose 1 mg/kg rat i.v. bolus): 211.0 µmol/kg
CC[C@H](C)[C@H](NC(=O)[C@H](CCCNC(=N)N)NC(=O)[C@H](Cc1c[nH]c2ccccc12)NC(=O)[C@@H](NC(=O)[C@H](CCCNC(=N)N)NC(=O)OCc1ccccc1)[C@@H](C)CC)C(=O)O [Z-Arg-Ile-Trp-Arg-Ile-OH] (Cbz-RIWRI-OH),,,,Urine (rat [2]; dose 1 mg/kg rat i.v. bolus): 1.64 mL/kg; K^+ (rat [2]; dose 1 mg/kg rat i.v. bolus): 37.1 µmol/kg; Na^+ (rat [2]; dose 1 mg/kg rat i.v. bolus): 208.6 µmol/kg
CC[C@H](C)[C@H](NC(=O)[C@@H](N)CCCNC(=N)N)C(=O)N[C@@H](COC(C)(C)C)C(=O)N[C@@H](CCCNC(=N)N)C(=O)N1CCC[C@H]1C(=O)OC(C)(C)C [H-Arg-Ile-Ser(tBu)-Arg-Pro-OtBu] (H-RIS(tBu)RP-OtBu),0.63 mL/kg,31.5 µmol/kg,136.8 µmol/kg,
H-RIWRI-OH [H-Arg-Ile-Trp-Arg-Ile-OH],,,,Urine (rat [2]; dose 1 mg/kg rat i.v. bolus): 0.67 mL/kg; K^+ (rat [2]; dose 1 mg/kg rat i.v. bolus): 57.5 µmol/kg; Na^+ (rat [2]; dose 1 mg/kg rat i.v. bolus): 112.8 µmol/kg
CC[C@H](C)[C@H](NC(=O)[C@H](CCCNC(=N)N)NC(=O)OCc1ccccc1)C(=O)N[C@@H](CC(C)C)C(=O)N[C@H](CCCNC(=N)N)C(=O)N[C@H](C(=O)OCc1ccccc1)[C@@H](C)CC [Z-Arg-Ile-Leu-D-Arg-Ile-OBzl] (Cbz-RIL[dR]I-OBn),0.52 mL/kg,36.2 µmol/kg,66.9 µmol/kg,
CC[C@H](C)[C@H](NC(=O)[C@H](CCCNC(=N)N)NC(=O)OCc1ccccc1)C(=O)N[C@H](CC(C)C)C(=O)N[C@@H](CCCNC(=N)N)C(=O)N[C@@H](C(=O)OCc1ccccc1)C(C)C [Z-Arg-Ile-D-Leu-Arg-D-Val-OBzl] (Cbz-RI[dL]R[dV]-OBn),0.48 mL/kg,43.8 µmol/kg,79.0 µmol/kg,
CC[C@H](C)[C@H](NC(=O)[C@@H](CCCNC(=N)N)NC(=O)[C@H](CC(C)C)NC(=O)[C@@H](NC(=O)[C@@H](N)CCCNC(=N)N)[C@@H](C)CC)C(=O)O [H-Arg-Ile-Leu-D-Arg-Ile-OH] (H-RIL[dR]I-OH),0.78 mL/kg,40.8 µmol/kg,93.7 µmol/kg,
CC[C@H](C)[C@H](NC(=O)[C@H](CCCNC(=N)N)NC(=O)OCc1ccccc1)C(=O)N[C@@H](COC(C)(C)C)C(=O)N[C@@H](CCCNC(=N)N)C(=O)N1CCC[C@H]1C(=O)OC(C)(C)C [Z-Arg-Ile-Ser(tBu)-Arg-Pro-OtBu] (Cbz-RIS(tBu)RP-OtBu),0.44 mL/kg,37.8 µmol/kg,88.9 µmol/kg,
CC[C@H](C)[C@H](NC(=O)[C@@H](N)CCCNC(=N)N)C(=O)N[C@@H](CC(C)C)C(=O)N[C@@H](CCCNC(=N)N)C(=O)N[C@@H](C(=O)O)C(C)C [H-Arg-Ile-Leu-Arg-D-Val-OH] (H-RILR[dV]-OH),0.56 mL/kg,38.9 µmol/kg,68.8 µmol/kg,
Cbz-RID(OtBu)RI-NH2,,,,Urine (rat [2]; dose 1 mg/kg rat i.v. bolus): 1.51 mL/kg; K^+ (rat [2]; dose 1 mg/kg rat i.v. bolus): 63.3 µmol/kg; Na^+ (rat [2]; dose 1 mg/kg rat i.v. bolus): 263.2 µmol/kg
H-RILRI-OH [H-Arg-Ile-Leu-Arg-Ile-OH],,,,Urine (rat [2]; dose 1 mg/kg rat i.v. bolus): 2.03 mL/kg; K^+ (rat [2]; dose 1 mg/kg rat i.v. bolus): 50.1 µmol/kg; Na^+ (rat [2]; dose 1 mg/kg rat i.v. bolus): 149.8 µmol/kg
CC[C@H](C)[C@H](NC(=O)[C@H](CCCNC(=N)N)NC(=O)[C@@H](CC(C)C)NC(=O)[C@H](NC(=O)[C@H](N)CCCNC(=N)N)[C@@H](C)CC)C(=O)O [H-D-Arg-D-allo-Ile-D-Leu-Arg-Ile-OH] (H-[dR][d(aIle)][dL]RI-OH),0.87 mL/kg,35.5 µmol/kg,95.1 µmol/kg,
H-RPVKV-OH [H-Arg-Pro-Val-Lys-Val-OH],,,,"Urine (rat [2]; dose 1 mg/kg rat i.v. bolus): 0.91 mL/kg; K^+ (rat [2]; dose 1 mg/kg rat i.v. bolus): 28.2 µmol/kg; Na^+ (rat [2]; dose 1 mg/kg rat i.v. bolus): 155.7 µmol/kg; Type of action on diuresis, natriuresis and kaliuresis (in words) (rat [2]): potassium-retaining natriuretics"

Compound,Urine (rat [1]),K^+ (rat [1]),Na^+ (rat [1]),other results
H-RID(OtBu)R[Leu(ol)],,,,Urine (rat [2]; dose 1 mg/kg rat i.v. bolus): 1.55 mL/kg; K^+ (rat [2]; dose 1 mg/kg rat i.v. bolus): 64.2 µmol/kg; Na^+ (rat [2]; dose 1 mg/kg rat i.v. bolus): 180.8 µmol/kg
CC[C@H](C)[C@H](NC(=O)[C@H](CCCNC(=N)N)NC(=O)[C@H](CC(C)C)NC(=O)[C@H](NC(=O)[C@@H](N)CCCNC(=N)N)C(C)C)C(=O)O [H-Arg-D-Val-Leu-Arg-Ile-OH] (H-R[dV]LRI-OH),0.57 mL/kg,34.9 µmol/kg,83.77 µmol/kg,
CC(C)C[C@H](NC(=O)[C@H](NC(=O)[C@H](CCCNC(=N)N)NC(=O)OCc1ccccc1)C(C)C)C(=O)N[C@@H](CCCNC(=N)N)C(=O)N[C@@H](C(=O)OCc1ccccc1)C(C)C [Z-Arg-D-Val-Leu-Arg-D-Val-OBzl] (Cbz-R[dV]LR[dV]-OBn),0.27 mL/kg,38.3 µmol/kg,55.1 µmol/kg,
H-KFLKF-NH2 [H-Lys-Phe-Leu-Lys-Phe-NH2],0.25 mL/kg,16.7 µmol/kg,36.8 µmol/kg,
Z-Arg-Ile-Trp-Arg-Ile-OMe ({code Z}-RIWRI-OMe; reading uncertain; also: printed as Z-Arg-Ile-Trp-Arg-Ile-OMe),,,,Urine (rat [2]; dose 1 mg/kg rat i.v. bolus): 1.16 mL/kg; K^+ (rat [2]; dose 1 mg/kg rat i.v. bolus): 46.2 µmol/kg; Na^+ (rat [2]; dose 1 mg/kg rat i.v. bolus): 152.5 µmol/kg
Cbz-[dR]IL[dR]I-OBn,0.29 mL/kg,30.1 µmol/kg,48.4 µmol/kg,
CC[C@H](C)[C@H](NC(=O)[C@H](CCCNC(=N)N)NC(=O)OCc1ccccc1)C(=O)N[C@@H](CC(C)C)C(=O)N[C@@H](CCCNC(=N)N)C(=O)N[C@@H](C(=O)OCc1ccccc1)C(C)C [Z-Arg-Ile-Leu-Arg-D-Val-OBzl] (Cbz-RILR[dV]-OBn),0.43 mL/kg,36.7 µmol/kg,88.6 µmol/kg,
CC[C@H](C)[C@H](NC(=O)[C@H](CCCNC(=N)N)NC(=O)[C@H](COC(C)(C)C)NC(=O)[C@@H](NC(=O)[C@@H](N)CCCNC(=N)N)[C@@H](C)CC)C(=O)O [H-Arg-Ile-Ser(tBu)-Arg-Ile-OH] (H-RIS(tBu)RI-OH),,,,Urine (rat [2]; dose 1 mg/kg rat i.v. bolus): 1.19 mL/kg; K^+ (rat [2]; dose 1 mg/kg rat i.v. bolus): 28.4 µmol/kg; Na^+ (rat [2]; dose 1 mg/kg rat i.v. bolus): 74.5 µmol/kg
Z-D-Arg-Ile-Leu-Arg-Ile-OBzl ({code Z}-[dR]ILRI-OBn; reading uncertain; also: printed as Z-D-Arg-Ile-Leu-Arg-Ile-OBzl),0.59 mL/kg,38.1 µmol/kg,86.3 µmol/kg,
H-KFLKF-OH [H-Lys-Phe-Leu-Lys-Phe-OH],0.52 mL/kg,31.0 µmol/kg,80.2 µmol/kg,
CC[C@H](C)[C@H](NC(=O)[C@@H](N)CCCNC(=N)N)C(=O)N[C@H](CC(C)C)C(=O)N[C@@H](CCCNC(=N)N)C(=O)N[C@@H](C(=O)O)C(C)C [H-Arg-Ile-D-Leu-Arg-D-Val-OH] (H-RI[dL]R[dV]-OH),0.31 mL/kg,32.8 µmol/kg,68.4 µmol/kg,
Cbz-[dR]I[dL]RI-OBn,0.19 mL/kg,20.4 µmol/kg,37.3 µmol/kg,
Z-Arg-I-le-Glu(OtBu)-Arg-Ile-NH2 [Z-Arg-Ile-Glu(OtBu)-Arg-Ile-NH2],0.47 mL/kg,36.1 µmol/kg,91.5 µmol/kg,
Z-Arg-Ile-Asp(OtBu)-Arg-Ile-ol,,,,"Urine (rat [2]; dose 1 μg/kg i.v. bolus): 0.79 mL/kg; K^+ (rat [2]; dose 1 μg/kg i.v. bolus): 27.8 µmol/kg; Na^+ (rat [2]; dose 1 μg/kg i.v. bolus): 118.4 µmol/kg; Type of action on diuresis, natriuresis and kaliuresis (in words) (rat [2]): antidiuretics with a natriuretic action"
CC[C@H](C)[C@H](NC(=O)[C@H](CCCNC(=N)N)NC(=O)[C@@H](CC(C)C)NC(=O)[C@@H](NC(=O)[C@H](N)CCCNC(=N)N)[C@@H](C)CC)C(=O)O [H-D-Arg-Ile-D-Leu-Arg-Ile-OH] (H-[dR]I[dL]RI-OH),1.13 mL/kg,49.7 µmol/kg,115.9 µmol/kg,
